From US20100242139A1, “XENOHORMESIS BASED COMPOSITIONS AND METHODS” (President and Fellows of Harvard College, priority 2006, published 2010)

Columns and labels:
IRR(h) = IRR(h) (Homo sapiens, UniProt P14616); assay: kinase panel activity, IRR(h); format: biochemical; settings: compound at 20 μM; vs reference with no compound
PAK6(h) = PAK6(h) (Homo sapiens, UniProt Q9NQU5); assay: kinase panel activity, PAK6(h); format: biochemical; settings: compound at 20 μM; vs reference with no compound
NEK6(h) = NEK6(h) (Homo sapiens, UniProt Q9HC98); assay: kinase panel activity, NEK6(h); format: biochemical; settings: compound at 20 μM; vs reference with no compound
CDK9/cyclin T1(h) = CDK9/cyclin T1(h) (Homo sapiens, UniProt P50750); assay: kinase panel activity, CDK9/cyclin T1(h); format: biochemical; settings: compound at 20 μM; vs reference with no compound
SAPK4(h) = SAPK4(h) (Homo sapiens, UniProt O15264); assay: kinase panel activity, SAPK4(h); format: biochemical; settings: compound at 20 μM; vs reference with no compound
SAPK4(h), sequence (O15264 whole entry): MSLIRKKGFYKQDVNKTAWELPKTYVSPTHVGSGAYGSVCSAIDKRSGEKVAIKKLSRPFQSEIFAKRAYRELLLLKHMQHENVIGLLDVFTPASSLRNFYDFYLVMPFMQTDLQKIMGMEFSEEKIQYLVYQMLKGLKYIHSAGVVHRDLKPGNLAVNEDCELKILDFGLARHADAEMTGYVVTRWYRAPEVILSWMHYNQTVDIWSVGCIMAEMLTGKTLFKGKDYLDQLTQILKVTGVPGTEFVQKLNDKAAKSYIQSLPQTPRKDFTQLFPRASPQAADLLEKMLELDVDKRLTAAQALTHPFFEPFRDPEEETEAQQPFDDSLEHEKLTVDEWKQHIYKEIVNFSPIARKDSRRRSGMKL

AMPK(r) = assay: kinase panel activity, AMPK(r); format: biochemical, rat; settings: compound at 20 μM; vs reference with no compound
Rsk2(h) = Rsk2(h) (Homo sapiens, UniProt P51812); assay: kinase panel activity, Rsk2(h); format: biochemical
Rsk2(h), sequence (P51812 whole entry): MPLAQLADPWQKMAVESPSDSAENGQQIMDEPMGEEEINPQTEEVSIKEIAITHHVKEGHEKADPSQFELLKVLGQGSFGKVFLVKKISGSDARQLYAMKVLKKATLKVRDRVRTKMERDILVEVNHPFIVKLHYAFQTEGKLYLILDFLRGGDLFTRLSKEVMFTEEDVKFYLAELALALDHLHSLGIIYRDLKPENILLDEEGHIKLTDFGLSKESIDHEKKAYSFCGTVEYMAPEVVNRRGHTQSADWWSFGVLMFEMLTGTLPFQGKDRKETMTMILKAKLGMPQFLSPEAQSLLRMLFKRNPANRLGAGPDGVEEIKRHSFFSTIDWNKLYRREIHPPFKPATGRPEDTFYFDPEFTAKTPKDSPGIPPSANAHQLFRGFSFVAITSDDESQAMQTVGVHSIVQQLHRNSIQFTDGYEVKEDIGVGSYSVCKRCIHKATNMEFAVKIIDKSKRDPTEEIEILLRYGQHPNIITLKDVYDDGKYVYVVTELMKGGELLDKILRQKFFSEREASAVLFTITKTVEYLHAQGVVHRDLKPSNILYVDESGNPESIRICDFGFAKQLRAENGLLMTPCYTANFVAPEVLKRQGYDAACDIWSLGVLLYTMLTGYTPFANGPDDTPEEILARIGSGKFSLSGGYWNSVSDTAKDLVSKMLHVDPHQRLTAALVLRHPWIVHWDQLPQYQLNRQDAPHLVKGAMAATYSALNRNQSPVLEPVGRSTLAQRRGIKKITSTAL

CDK2/cyclinA(h) = CDK2/cyclinA(h) (Homo sapiens, UniProt P24941); assay: kinase panel activity, CDK2/cyclinA(h); format: biochemical; settings: compound at 20 μM; vs reference with no compound
MST1(h) = MST1(h) (Homo sapiens, UniProt Q13043); assay: kinase panel activity, MST1(h); format: biochemical; settings: compound at 20 μM; vs reference with no compound
PKG1β(h) = PKG1β(h) (Homo sapiens, UniProt Q13976); assay: kinase panel activity, PKG1β(h); format: biochemical; settings: compound at 20 μM; vs reference with no compound
cKit(h) = cKit(h) (Homo sapiens, UniProt P10721); assay: kinase panel activity, cKit(h); format: biochemical; settings: compound at 20 μM; vs reference with no compound
ZAP-70(h) = ZAP-70(h) (Homo sapiens, UniProt P43403); assay: kinase panel activity, ZAP-70(h); format: biochemical; settings: compound at 20 μM; vs reference with no compound
IGF-1R(h) = IGF-1R(h) (Homo sapiens, UniProt P08069); assay: kinase panel activity, IGF-1R(h); format: biochemical; settings: compound at 20 μM; vs reference with no compound
IGF-1R(h), sequence (P08069 31-1367): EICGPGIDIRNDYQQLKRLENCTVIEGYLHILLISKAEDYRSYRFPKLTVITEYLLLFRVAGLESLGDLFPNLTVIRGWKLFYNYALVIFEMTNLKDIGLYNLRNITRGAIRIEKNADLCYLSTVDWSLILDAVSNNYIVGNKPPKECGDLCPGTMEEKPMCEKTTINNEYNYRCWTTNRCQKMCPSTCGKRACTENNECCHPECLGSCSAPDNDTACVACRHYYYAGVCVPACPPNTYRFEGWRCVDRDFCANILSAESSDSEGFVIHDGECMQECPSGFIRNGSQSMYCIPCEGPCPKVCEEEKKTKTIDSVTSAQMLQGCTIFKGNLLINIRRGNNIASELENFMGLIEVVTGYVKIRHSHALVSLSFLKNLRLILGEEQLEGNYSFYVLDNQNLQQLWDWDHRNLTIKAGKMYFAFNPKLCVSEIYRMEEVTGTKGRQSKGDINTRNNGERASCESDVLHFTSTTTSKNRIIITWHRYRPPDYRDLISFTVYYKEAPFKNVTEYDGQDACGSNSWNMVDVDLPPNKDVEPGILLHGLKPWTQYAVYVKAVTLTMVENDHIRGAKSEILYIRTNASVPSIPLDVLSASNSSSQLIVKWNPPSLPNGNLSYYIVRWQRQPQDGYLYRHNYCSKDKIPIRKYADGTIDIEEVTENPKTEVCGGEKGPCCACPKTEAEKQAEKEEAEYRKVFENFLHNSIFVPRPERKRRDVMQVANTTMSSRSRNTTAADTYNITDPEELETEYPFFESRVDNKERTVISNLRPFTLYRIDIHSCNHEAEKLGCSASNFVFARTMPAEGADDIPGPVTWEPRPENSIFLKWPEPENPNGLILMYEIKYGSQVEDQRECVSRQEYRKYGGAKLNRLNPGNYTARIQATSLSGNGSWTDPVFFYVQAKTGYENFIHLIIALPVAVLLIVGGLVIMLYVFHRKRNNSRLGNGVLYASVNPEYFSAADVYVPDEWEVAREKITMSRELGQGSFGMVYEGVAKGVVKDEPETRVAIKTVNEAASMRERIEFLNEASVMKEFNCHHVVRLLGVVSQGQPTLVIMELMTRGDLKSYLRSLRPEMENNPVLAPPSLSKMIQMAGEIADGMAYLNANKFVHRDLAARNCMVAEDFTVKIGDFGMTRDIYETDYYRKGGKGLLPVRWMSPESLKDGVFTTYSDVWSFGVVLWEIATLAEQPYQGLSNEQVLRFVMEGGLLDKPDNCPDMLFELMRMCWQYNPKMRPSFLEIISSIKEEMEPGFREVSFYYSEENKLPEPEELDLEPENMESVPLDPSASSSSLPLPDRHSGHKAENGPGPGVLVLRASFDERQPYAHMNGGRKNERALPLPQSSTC

PKBα(h) = PKBα(h) (Homo sapiens, UniProt P31749); assay: kinase panel activity, PKBα(h); format: biochemical; settings: read-out: percent activity of PKBα(h)
JNK3(h) = JNK3(h) (Homo sapiens, UniProt P53779); assay: kinase panel activity, JNK3(h); format: biochemical; settings: compound at 20 μM; vs reference with no compound
FGFR1(h) = FGFR1(h) (Homo sapiens, UniProt P11362); assay: kinase panel activity, FGFR1(h); format: biochemical; settings: compound at 20 μM; vs reference with no compound
SAPK2b(h) = SAPK2b(h) (Homo sapiens, UniProt Q15759); assay: kinase panel activity, SAPK2b(h); format: biochemical; settings: compound at 20 μM; vs reference with no compound
Flt1(h) = Flt1(h) (Homo sapiens, UniProt P17948); assay: kinase panel activity, Flt1(h); format: biochemical; settings: compound at 20 μM; vs reference with no compound
Fgr(h) = Fgr(h) (Homo sapiens, UniProt P09769); assay: kinase panel activity, Fgr(h); format: biochemical; settings: compound at 20 μM; vs reference with no compound
SGK(h) = SGK(h) (Homo sapiens, UniProt O00141); assay: kinase panel activity, SGK(h); format: biochemical; settings: compound at 20 μM; vs reference with no compound
PKA(h) = PKA(h) (Homo sapiens, UniProt P17612); assay: kinase panel activity, PKA(h); format: biochemical; settings: compound at 20 μM; vs reference with no compound
SGK2(h) = SGK2(h) (Homo sapiens, UniProt Q9HBY8); assay: kinase panel activity, SGK2(h); format: biochemical; settings: compound at 20 μM; vs reference with no compound
NEK2(h) = NEK2(h) (Homo sapiens, UniProt P51955); assay: kinase panel activity, NEK2(h); format: biochemical; settings: compound at 20 μM; vs reference with no compound
Ros(h) = Ros(h) (Homo sapiens, UniProt P08922); assay: kinase panel activity, Ros(h); format: biochemical; settings: compound at 20 μM; vs reference with no compound
ALK(h) = ALK(h) (Homo sapiens, UniProt Q9UM73); assay: kinase panel activity, ALK(h); format: biochemical; settings: compound at 20 μM; vs reference with no compound
TBK1(h) = TBK1(h) (Homo sapiens, UniProt Q9UHD2); assay: kinase panel activity, TBK1(h); format: biochemical; settings: compound at 20 μM; vs reference with no compound
MST2(h) = MST2(h) (Homo sapiens, UniProt Q13188); assay: kinase panel activity, MST2(h); format: biochemical; settings: compound at 20 μM; vs reference with no compound
CHK1(h) = CHK1(h) (Homo sapiens, UniProt O14757); assay: kinase panel activity, CHK1(h); format: biochemical; settings: compound at 20 μM; vs reference with no compound
PDGFRβ(h) = PDGFRβ(h) (Homo sapiens, UniProt P09619); assay: kinase panel activity, PDGFRβ(h); format: biochemical; settings: compound at 20 μM; vs reference with no compound
EGFR(h) = EGFR(h) (Homo sapiens, UniProt P00533); assay: kinase panel activity, EGFR(h); format: biochemical; settings: compound at 20 μM; vs reference with no compound
TrkA(h) = TrkA(h) (Homo sapiens, UniProt P04629); assay: kinase panel activity, TrkA(h); format: biochemical; settings: compound at 20 μM; vs reference with no compound
CDK7/cyclinH/MAT1(h) = CDK7/cyclinH/MAT1(h) (Homo sapiens, UniProt P50613); assay: kinase panel activity, CDK7/cyclinH/MAT1(h); format: biochemical; settings: compound at 20 μM; vs reference with no compound
PDK1(h) = PDK1(h) (Homo sapiens, UniProt O15530); assay: kinase panel activity, PDK1(h); format: biochemical; settings: compound at 20 μM; vs reference with no compound
PIk3(h) = PIk3(h) (Homo sapiens, UniProt Q9H4B4); assay: kinase panel activity, PIk3(h); format: biochemical; settings: compound at 20 μM; vs reference with no compound
SAPK3(h) = SAPK3(h) (Homo sapiens, UniProt P53778); assay: kinase panel activity, SAPK3(h); format: biochemical; settings: compound at 20 μM; vs reference with no compound
NEK3(h) = NEK3(h) (Homo sapiens, UniProt P51956); assay: kinase panel activity, NEK3(h); format: biochemical; settings: compound at 20 μM; vs reference with no compound
NEK3(h), sequence (P51956 whole entry): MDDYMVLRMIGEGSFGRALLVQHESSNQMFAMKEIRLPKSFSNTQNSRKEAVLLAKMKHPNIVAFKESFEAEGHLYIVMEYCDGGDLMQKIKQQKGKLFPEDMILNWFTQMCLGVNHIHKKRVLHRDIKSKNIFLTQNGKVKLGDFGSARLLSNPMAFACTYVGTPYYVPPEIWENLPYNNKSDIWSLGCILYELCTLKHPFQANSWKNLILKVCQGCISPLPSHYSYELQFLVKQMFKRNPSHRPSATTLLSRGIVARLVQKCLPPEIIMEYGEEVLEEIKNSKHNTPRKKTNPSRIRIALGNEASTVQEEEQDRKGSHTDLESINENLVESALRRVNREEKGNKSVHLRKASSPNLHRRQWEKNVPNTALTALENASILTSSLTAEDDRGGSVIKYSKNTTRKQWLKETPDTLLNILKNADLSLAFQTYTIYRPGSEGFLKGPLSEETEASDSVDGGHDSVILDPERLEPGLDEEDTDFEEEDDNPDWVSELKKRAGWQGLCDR

GSK3α(h) = GSK3α(h) (Homo sapiens, UniProt P49840); assay: kinase panel activity, GSK3α(h); format: biochemical; settings: compound at 20 μM; vs reference with no compound
Fms(h) = Fms(h) (Homo sapiens, UniProt P07333); assay: kinase panel activity, Fms(h); format: biochemical; settings: compound at 20 μM; vs reference with no compound
LKB1(h) = LKB1(h) (Homo sapiens, UniProt Q15831); assay: kinase panel activity, LKB1(h); format: biochemical; settings: compound at 20 μM; vs reference with no compound
LKB1(h), sequence (Q15831 whole entry): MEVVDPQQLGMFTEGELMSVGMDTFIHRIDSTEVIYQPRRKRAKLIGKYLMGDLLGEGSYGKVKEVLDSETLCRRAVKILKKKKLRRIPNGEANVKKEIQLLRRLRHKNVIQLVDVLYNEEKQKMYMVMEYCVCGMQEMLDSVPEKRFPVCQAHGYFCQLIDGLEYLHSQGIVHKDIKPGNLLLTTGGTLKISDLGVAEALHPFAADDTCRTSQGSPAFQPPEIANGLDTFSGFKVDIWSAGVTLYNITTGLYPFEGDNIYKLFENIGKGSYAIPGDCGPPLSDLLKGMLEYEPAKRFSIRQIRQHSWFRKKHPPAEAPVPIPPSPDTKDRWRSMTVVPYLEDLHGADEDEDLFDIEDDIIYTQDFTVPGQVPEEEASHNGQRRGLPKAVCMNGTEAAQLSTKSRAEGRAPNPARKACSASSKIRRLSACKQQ
LKB1(h), sequence (Q7RTN6 whole entry partner): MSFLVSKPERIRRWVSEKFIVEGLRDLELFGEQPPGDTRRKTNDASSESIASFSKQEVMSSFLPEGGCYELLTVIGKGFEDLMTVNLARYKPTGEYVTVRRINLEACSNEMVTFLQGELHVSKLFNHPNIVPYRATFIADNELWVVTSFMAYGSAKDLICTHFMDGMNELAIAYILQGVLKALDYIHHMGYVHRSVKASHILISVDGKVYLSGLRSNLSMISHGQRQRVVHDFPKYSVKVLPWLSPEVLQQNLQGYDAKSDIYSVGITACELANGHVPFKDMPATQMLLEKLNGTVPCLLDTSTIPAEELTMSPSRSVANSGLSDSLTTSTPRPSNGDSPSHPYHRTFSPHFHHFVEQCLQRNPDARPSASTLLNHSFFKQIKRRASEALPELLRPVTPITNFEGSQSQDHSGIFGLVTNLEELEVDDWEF
LKB1(h), sequence (Q9Y376 whole entry partner): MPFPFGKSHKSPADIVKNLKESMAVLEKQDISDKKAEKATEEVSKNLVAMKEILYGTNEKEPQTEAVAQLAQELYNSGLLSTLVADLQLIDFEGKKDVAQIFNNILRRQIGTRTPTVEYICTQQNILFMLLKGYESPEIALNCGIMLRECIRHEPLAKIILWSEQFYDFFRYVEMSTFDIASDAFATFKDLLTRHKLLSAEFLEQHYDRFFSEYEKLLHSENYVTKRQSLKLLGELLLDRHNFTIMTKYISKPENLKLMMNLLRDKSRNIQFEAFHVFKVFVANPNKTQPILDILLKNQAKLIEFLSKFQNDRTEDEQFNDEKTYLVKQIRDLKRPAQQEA

IRAK1(h) = IRAK1(h) (Homo sapiens, UniProt P51617); assay: kinase panel activity, IRAK1(h); format: biochemical; settings: compound at 20 μM; vs reference with no compound

PAK6(h), sequence (Q9NQU5 whole entry): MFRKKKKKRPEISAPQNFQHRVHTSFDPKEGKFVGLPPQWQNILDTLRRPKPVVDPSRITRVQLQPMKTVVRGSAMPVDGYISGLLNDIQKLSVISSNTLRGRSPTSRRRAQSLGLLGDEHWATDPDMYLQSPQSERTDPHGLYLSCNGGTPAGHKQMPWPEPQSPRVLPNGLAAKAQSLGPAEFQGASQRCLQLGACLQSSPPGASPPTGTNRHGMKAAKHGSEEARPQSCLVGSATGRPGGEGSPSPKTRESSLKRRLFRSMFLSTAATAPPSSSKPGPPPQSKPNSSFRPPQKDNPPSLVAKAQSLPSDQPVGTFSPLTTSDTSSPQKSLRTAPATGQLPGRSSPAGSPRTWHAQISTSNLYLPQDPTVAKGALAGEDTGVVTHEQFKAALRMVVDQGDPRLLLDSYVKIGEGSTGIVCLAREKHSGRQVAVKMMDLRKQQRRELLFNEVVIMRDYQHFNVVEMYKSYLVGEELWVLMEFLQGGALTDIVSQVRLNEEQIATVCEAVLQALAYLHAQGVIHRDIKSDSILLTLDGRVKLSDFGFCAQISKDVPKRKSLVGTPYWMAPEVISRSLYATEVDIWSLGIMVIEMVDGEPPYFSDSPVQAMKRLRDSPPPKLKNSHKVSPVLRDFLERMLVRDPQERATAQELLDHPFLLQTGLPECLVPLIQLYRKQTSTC

Compound: Oc1ccc(C=Cc2cc(O)cc(O)c2)cc1 [resveratrol, 3,5,4′-trihydroxystilbene]
- percent activity of IRR(h) (IRR(h)): 40%
- percent activity of PAK6(h) (PAK6(h)): 103%
- percent activity of NEK6(h) (NEK6(h)): 140%
- percent activity of CDK9/cyclin T1(h) (CDK9/cyclin T1(h)): 70%
- percent activity of SAPK4(h) (SAPK4(h)): 92%
- percent activity of AMPK(r) (AMPK(r)): 39%
- inhibition at 20 µM (Rsk2(h)): 68%
- percent activity of Rsk2(h) (Rsk2(h); compound at 20 μM, vs reference with no compound): 32%
- percent activity of CDK2/cyclinA(h) (CDK2/cyclinA(h)): 80%
- percent activity of MST1(h) (MST1(h)): 75%
- percent activity of PKG1β(h) (PKG1β(h)): 56%
- percent activity of cKit(h) (cKit(h)): 68%
- percent activity of ZAP-70(h) (ZAP-70(h)): 141%
- percent activity of IGF-1R(h) (IGF-1R(h)): 75%
- activity at 20 µM (PKBα(h)): 94%
- percent activity of JNK3(h) (JNK3(h)): 98%
- percent activity of FGFR1(h) (FGFR1(h)): 58%
- percent activity of SAPK2b(h) (SAPK2b(h)): 100%
- percent activity of Flt1(h) (Flt1(h)): 52%
- percent activity of Fgr(h) (Fgr(h)): 78%
- percent activity of SGK(h) (SGK(h)): 86%
- percent activity of PKA(h) (PKA(h)): 100%
- percent activity of SGK2(h) (SGK2(h)): 70%
- percent activity of NEK2(h) (NEK2(h)): 102%
- percent activity of Ros(h) (Ros(h)): 102%
- percent activity of ALK(h) (ALK(h)): 39%
- percent activity of TBK1(h) (TBK1(h)): 62%
- percent activity of MST2(h) (MST2(h)): 73%
- percent activity of CHK1(h) (CHK1(h)): 95%
- percent activity of PDGFRβ(h) (PDGFRβ(h)): 119%
- percent activity of EGFR(h) (EGFR(h)): 90%
- percent activity of TrkA(h) (TrkA(h)): 31%
- percent activity of CDK7/cyclinH/MAT1(h) (CDK7/cyclinH/MAT1(h)): 95%
- percent activity of PDK1(h) (PDK1(h)): 108%
- percent activity of PIk3(h) (PIk3(h)): 95%
- percent activity of SAPK3(h) (SAPK3(h)): 110%
- percent activity of NEK3(h) (NEK3(h)): 96%
- percent activity of GSK3α(h) (GSK3α(h)): 79%
- percent activity of Fms(h) (Fms(h)): 61%
- percent activity of LKB1(h) (LKB1(h)): 102%
- percent activity of IRAK1(h) (IRAK1(h)): 97%
